The target of one data set is T1, SHP2 E76A protein (Homo sapiens, UniProt Q06124, E76A).
T1 sequence (Q06124 1-593 E76A): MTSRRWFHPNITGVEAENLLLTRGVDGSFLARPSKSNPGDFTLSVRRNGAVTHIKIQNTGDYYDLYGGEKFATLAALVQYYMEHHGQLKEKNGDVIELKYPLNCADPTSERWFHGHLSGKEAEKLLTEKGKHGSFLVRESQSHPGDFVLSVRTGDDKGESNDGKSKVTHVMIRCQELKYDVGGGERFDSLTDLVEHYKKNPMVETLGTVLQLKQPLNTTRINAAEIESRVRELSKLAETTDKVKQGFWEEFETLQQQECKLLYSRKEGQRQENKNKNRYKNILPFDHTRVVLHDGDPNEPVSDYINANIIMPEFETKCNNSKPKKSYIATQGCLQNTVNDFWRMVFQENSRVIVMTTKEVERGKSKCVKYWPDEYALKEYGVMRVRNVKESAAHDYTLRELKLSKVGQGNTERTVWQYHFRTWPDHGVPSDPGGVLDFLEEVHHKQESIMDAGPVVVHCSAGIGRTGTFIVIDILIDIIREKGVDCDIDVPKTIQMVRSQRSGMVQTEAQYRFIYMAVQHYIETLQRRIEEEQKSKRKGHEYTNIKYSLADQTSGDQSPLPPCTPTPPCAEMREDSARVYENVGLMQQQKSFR
Kind of data set: SHP2 enzyme activity inhibition test (DiFMUP substrate, fluorescence). Format: biochemical. The note with it: 50 ng SHP2 E76A, 20 min with compound, then 10 uM DiFMUP 20 min at room temperature.

The test system of another data set is MV4-11 cells. Kind of data set: MV4-11 cell proliferation inhibition experiment (CellTiter-Glo). Format: cell-based. To be noted: Homo sapiens, read-out: Cell proliferation inhibition activity. How it is done:
The number of living cells in the culture was determined by quantitative determination of intracellular ATP using CellTiter-Glo® Luminescent Cell Viability Assay kit.
In the first step, MV4-11 cells were inoculated into 96-well plates with a density of 2500 cells per well and a volume of 100 μL per well. The plates were placed in 37° C., 5% carbon dioxide incubator overnight.
In the second step, cells were treated with compounds. The compounds to be tested were diluted 3 times, and 8 concentration gradients were set up. Each well was added with a certain volume of DMSO or the compound to be tested, and each concentration was tested in 2 replicates, and the final concentration of DMSO was 0.5%. The plates were placed in 37° C., 5% carbon dioxide incubator for 72 h.
In the third step, cell viability of the control groups and the treatment groups was determined using CellTiter-Glo® Luminescent Cell Viability Assay kit (Promega, G7570). Each well was added with 50 uL CellTiter-Glo. The culture was mixed well, and incubated at room temperature for 10 min. Signals were read using EnSpire (Perkin Elmer). Inhibition percentages (%) were calculated by the following formula:
Inhibition percentage (%)=(1−signal value of compound treatment group/signal value of DMSO treatment group)*100.
(In general: In ATP-based viability assays light output follows the ATP content of the culture.)

Data set [1] in a line: Pharmacokinetics experiment, intragastric single dose. Format: in vivo. The note with it: mouse, plasma, male mice, oral administration dosage 5 mg/Kg; for half-life: read-out: Half-life T1/2 (converted); for Cmax: read-out: Maximum plasma concentration Cmax; for AUC: read-out: Plasma exposure AUC. How it is done:
Pharmacokinetics of the compound of the disclosure was determined. The following method was used to determine the pharmacokinetic parameters of the compound of the disclosure. Healthy male adult mice were used in the study. Each group was intragastrically administered with a single dose of 5-100 mg/kg. Fasting lasted from 10 hours before administration to 4 hours after administration. Blood samples were collected at different time points after administration and the compound content in plasma was determined by LC-MS/MS. The relationship between plasma concentration and time was analyzed by professional software (winnonlin), and the pharmacokinetic parameters of the compounds were calculated. According to Table 3, the compounds of the disclosure have excellent pharmacokinetic properties.

[2] abbreviates: MV4-11 cells, 72 h, CellTiter-Glo.

Like-named read-outs stand apart in the source and are kept apart here.

This is an account of results in US12441743B2, “Spiro aromatic ring compound and use thereof” (Etern Biopharma (Shanghai) Co., Ltd., priority 2018, dated 2025).

On to `N[C@@H]1c2cccnc2CC12CCN(c1ncc(Sc3ccnc4c3CCO4)c3nccn13)CC2` [Compound 1], for which the IC50 at SHP2 E76A protein came to 11 nM; in the data set with MV4-11 cells (MV4-11, 72 h), 68 nM.
Turning to `Nc1nccc(Sc2cnc(N3CCC4(CC3)Cc3ccccc3[C@H]4N)n3cnnc23)c1Cl` [Compound 2], the IC50 at SHP2 E76A protein is 4 nM; in the data set with MV4-11 cells (setting [2]), 11 nM.
On to `Nc1nccc(Sc2cnc(N3CCC4(CC3)Cc3ncccc3[C@H]4N)n3cnnc23)c1Cl` [Compound 3, (S)-1′-(8-((2-amino-3-chloropyridin-4-yl)thio)-[1,2,4]triazolo[4,3-c]pyrimidin-5-yl)-5,7-dihydrospiro[cyclopenta[b]pyridine-6,4′-piperidine]-5-amine], for which the IC50 at SHP2 E76A protein was found to be 11 nM; with MV4-11 cells (setting [2]) it was 99 nM.
Consider `Nc1nccc(Sc2cnc(N3CCC4(CC3)Cc3ccccc3[C@H]4N)n3ccnc23)c1Cl` [Compound 4, (S)-1′-(8-((2-amino-3-chloropyridin-4-yl)thio)imidazolo[1,2-c]pyrimidin-5-yl)-1,3-dihydrospirolindene-2,4′-piperidinel-1-amine], for which the IC50 at SHP2 E76A protein turned out to be 7 nM. In data set [1], the bioavailability (as a rule, the share of a dose that reaches the circulation, judged against a reference dose that is usually intravenous) was 34%; the half-life was 5.4 h; the Cmax is 7 µM; the AUC – broadly, concentration integrated over time – was 29 µM·h. Also, in the data set with MV4-11 cells (setting [2]), the IC50 is 7 nM.
As to `CNc1nccc(Sc2cnc(N3CCC4(CC3)Cc3ncccc3[C@H]4N)n3ccnc23)c1Cl` [Compound 5, (S)-1′-(8-((3-chloro-2-(methylamino)pyridin-4-yl)thio)imidazo[1,2-c]pyrimidin-5-yl)-5,7-dihydrospiro[cyclopenta[b]pyridine-6,4′-piperidine]-5-amine], the IC50 on SHP2 E76A protein amounted to 5 nM; with MV4-11 cells (MV4-11, 72 h), 6 nM.
`Nc1nccc(Sc2cnc(N3CCC4(CC3)Cc3ncccc3[C@H]4N)n3ccnc23)c1Cl` [Compound 6, (S)-1′-(8-((2-amino-3-chloropyridin-4-yl)thio)imidazo[1,2-c]pyrimidin-5-yl)-5,7-dihydrospiro[cyclopenta[b]pyridine-6,4′-piperidine]-5-amine]: on SHP2 E76A protein, the IC50 worked out at 6 nM. In data set [1], the bioavailability turned out to be 37%, the half-life is 3.1 h, the Cmax came out at 6 µM and the AUC amounted to 35 µM·h. Further, the IC50 in the data set with MV4-11 cells (setting [2]) was 4 nM.
On to `Nc1nccc(Sc2cnc(N3CCC4(CC3)Cc3ccncc3[C@H]4N)n3ccnc23)c1Cl` [Compound 8, (S)-1′-(8-((2-amino-3-chloropyridin-4-yl)thio)imidazo[1,2-c]pyrimidin-5-yl)-5,7-dihydrospiro[cyclopenta[c]pyridine-6,4′-piperidine]-7-amine], for which the IC50 at SHP2 E76A protein is 10 nM; in the data set with MV4-11 cells (setting [2]) it was 33 nM.
For the molecule `N[C@@H]1c2ncccc2CC12CCN(c1ncc(Sc3ccnc(Cl)c3Cl)c3nncn13)CC2` [Compound 9, (S)-1′-(8-(2,3-dichloropyridin-4-yl)thio-[1,2,4]-triazolo[4,3-c]pyrimidin-5-yl)-5,7-dihydrospiro[cyclopenta[b]pyridine-6,4′-piperidine]-7-amine], the IC50 was found to be 7 nM on SHP2 E76A protein and 60 nM with MV4-11 cells (MV4-11, 72 h).
As for `Nc1nccc(Sc2cnc(N3CCC4(CC3)Cc3cccnc3[C@H]4N)n3cnnc23)c1Cl` [Compound 11, (S)-1′-(8-((2-amino-3-chloropyridin-4-yl)thio)-[1,2,4]triazolo[4,3-c]pyrimidin-5-yl)-5,7-dihydrospiro[cyclopenta[b]pyridine-6,4′-piperidine]-7-amine], the results for the IC50 at SHP2 E76A protein and with MV4-11 cells (setting [2]) were 1 nM and 30 nM, respectively.
The matching figures for `Nc1nccc(Sc2cnc(N3CCC4(CC3)Cc3ccc(F)cc3[C@H]4N)n3cnnc23)c1Cl` [Compound 12, (S)-1′-(8-((2-amino-3-chloropyridin-4-yl)thio)-[1,2,4]triazolo[4,3-c]pyrimidin-5-yl)-6-fluoro-1,3-dihydrospiro[indene-2,4′-piperidine]-1-amine]: 2 nM and 30 nM.
The matching figures for `Nc1nccc(Sc2cnc(N3CCC4(CC3)Cc3ccc(F)cc3[C@H]4N)n3ccnc23)c1Cl` [Compound 13, (S)-1′-(8-((2-amino-3-chloropyridin-4-yl)thio)imidazo[1,2-c]pyrimidin-5-yl)-6-fluoro-1,3-dihydrospirolindene-2,4′-piperidinel-1-amine]: 1 nM and 1 nM.
The matching figures for `Nc1nccc(Sc2cnc(N3CCC4(CC3)Cc3cnccc3[C@H]4N)n3ccnc23)c1Cl` [Compound 14, (S)-1′-(8-((2-amino-3-chloropyridin-4-yl)thio)imidazo[1,2-c]pyrimidin-5-yl)-5,7-dihydrospiro[cyclopenta[c]pyridine-6,4′-piperidine]-5-amine]: 8 nM and 36 nM.
Consider `Nc1nccc(Sc2cnc(N3CCC4(CC3)Cc3cnccc3[C@H]4N)n3cnnc23)c1Cl` [Compound 15, (S)-1′-(8-((2-amino-3-chloropyridin-4-yl)thio)-[1,2,4]triazolo[4,3-c]pyrimidin-5-yl)-5,7-dihydrospiro[cyclopenta[c]pyridine-6,4′-piperidine]-5-amine], for which the results for the IC50 on SHP2 E76A protein and in the data set on MV4-11 cells (setting [2]) were 3 nM and 94 nM, respectively.
Regarding `Nc1nccc(Sc2cnc(N3CCC4(CC3)Cc3c(O)cccc3[C@H]4N)n3cnnc23)c1Cl` [Compound 16, (S)-1-amino-1′-(8-((2-amino-3-chloropyridin-4-yl)thio)-[1,2,4]triazolo[4,3-c]pyrimidin-5-yl)-1,3-dihydrospiro[indene-2,4′-piperidin]-4-ol], the IC50 at SHP2 E76A protein was 2 nM; in the data set on MV4-11 cells (MV4-11, 72 h), 52 nM.
As for `N#Cc1cccc2c1CC1(CCN(c3ncc(Sc4ccnc(N)c4Cl)c4nncn34)CC1)[C@@H]2N` [Compound 17, (S)-1-amino-1′-(8-((2-amino-3-chloropyridin-4-yl)thio)-[1,2,4]triazolo[4,3-c]pyrimidin-5-yl)-1,3-dihydrospiro[indene-2,4′-piperidine]-4-nitrile], the results for the IC50 on SHP2 E76A protein and with MV4-11 cells (setting [2]) were 10 nM and 35 nM, respectively.
Regarding `COc1cccc2c1CC1(CCN(c3ncc(Sc4ccnc(N)c4Cl)c4nncn34)CC1)[C@@H]2N` [Compound 19, (S)-1′-(8-((2-amino-3-chloropyridin-4-yl)thio)-[1,2,4]triazolo[4,3-c]pyrimidin-5-yl)-4-methoxy-1,3-dihydrospiro[indene-2,4′-piperidine]-1-amine], the values for the IC50 at SHP2 E76A protein and with MV4-11 cells (setting [2]) were 7 nM and 1 nM, respectively.
Consider `Nc1nccc(Sc2cnc(N3CCC4(CC3)Cc3nccnc3[C@H]4N)n3cnnc23)c1Cl` [Compound 20, (S)-1′-(8-((2-amino-3-chloropyridin-4-yl)thio)-[1,2,4]triazolo[4,3-c]pyrimidin-5-yl)-5,7-dihydrospiro[cyclopenta[b]pyrazine-6,4′-piperidine]-5-amine], for which the IC50 on SHP2 E76A protein is 6 nM.
For the molecule `N[C@@H]1c2ncccc2CC12CCN(c1ncc(Sc3cccnc3C(F)(F)F)c3nncn13)CC2` [Compound 21, (S)-1′-(8-((2-(trifluoromethyl)pyridin-3-yl)thio)-[1,2,4]-triazolo[4,3-c]pyrimidin-5-yl)-5,7-dihydrospiro[cyclopenta[b]pyridine-6,4′-piperidine]-7-amine], the IC50 on SHP2 E76A protein is 11 nM.
Turning to `Nc1nccc(Sc2cnc(N3CCC4(CC3)Cc3sc(Cl)nc3[C@H]4N)n3ccnc23)c1Cl` [Compound 22], on SHP2 E76A protein, the IC50 stood at 9 nM.
For the molecule `N[C@@H]1c2cccnc2CC12CCN(c1ncc(Sc3ccnc4[nH]ncc34)c3nccn13)CC2` [Compound 23], on SHP2 E76A protein, the IC50 was found to be 9 nM.
Take `C[C@@H]1OCC2(CCN(c3ncc(Sc4ccnc(N)c4Cl)n4nccc34)CC2)[C@@H]1N` [Positive control aa, reference compound]: the IC50 at SHP2 E76A protein was 26 nM; in the data set with MV4-11 cells (setting [2]), 423 nM.
